Experimental data as given in publication PMC7587962, “Evaluation of Cytotoxicity and α-Glucosidase Inhibitory Activity of Amide and Polyamino-Derivatives of Lupane Triterpenoids” (Molecules, 2020).
Like-named read-outs stand apart in the source and are kept apart here.

Legend:
Melanoma subpanel = experiment: NCI-60 screen, subpanel Melanoma
SNB-19 = experiment: NCI-60 SRB screen: CNS cancer SNB-19; type: cell-based, human; settings: SNB-19
SNB-75 = experiment: NCI-60 SRB screen: CNS cancer SNB-75; type: cell-based, human; settings: SNB-75
[1] = system: 60 human tumor cell lines; experiment: cells
NCI/ADR-RES = experiment: NCI-60 SRB screen: ovarian cancer NCI/ADR-RES; type: cell-based, human
CCRF-CEM = experiment: NCI-60 SRB screen: leukemia CCRF-CEM; type: cell-based; settings: Homo sapiens, 48 h
UACC-62 = experiment: NCI-60 SRB screen: melanoma UACC-62; type: cell-based, human; settings: UACC-62
Colon Cancer subpanel = experiment: NCI-60 screen, subpanel Colon Cancer
OVCAR-5 = experiment: NCI-60 SRB screen: ovarian cancer OVCAR-5; type: cell-based, human; settings: OVCAR-5
Ovarian Cancer subpanel = experiment: NCI-60 screen, subpanel Ovarian Cancer
OVCAR-3 = experiment: NCI-60 SRB screen: ovarian cancer OVCAR-3; type: cell-based, human; settings: OVCAR-3
HOP-92 = experiment: NCI-60 SRB screen: non-small cell lung cancer HOP-92; type: cell-based, human; settings: HOP-92
SR = experiment: NCI-60 SRB screen: leukemia SR; type: cell-based; settings: Homo sapiens, 48 h
HS 578T = experiment: NCI-60 SRB screen: breast cancer HS 578T; type: cell-based, human; settings: HS 578T
NSCL cancer subpanel = experiment: NCI-60 screen, subpanel NSCL cancer
M14 = experiment: NCI-60 SRB screen: melanoma M14; type: cell-based, human; settings: M14
IGROV1 = experiment: NCI-60 SRB screen: ovarian cancer IGROV1; type: cell-based, human; settings: IGROV1
HL-60(TB) = experiment: NCI-60 SRB screen: leukemia HL-60(TB); type: cell-based; settings: Homo sapiens, 48 h, HL-60(TB)
CNS cancer subpanel = experiment: NCI-60 screen, subpanel CNS cancer
NCI-H23 = experiment: NCI-60 SRB screen: non-small cell lung cancer NCI-H23; type: cell-based, human; settings: NCI-H23
Leukemia subpanel = experiment: NCI-60 screen, subpanel Leukemia
SF-295 = experiment: NCI-60 SRB screen: CNS cancer SF-295; type: cell-based, human; settings: SF-295
Renal Cancer subpanel = experiment: NCI-60 screen, subpanel Renal Cancer
SK-MEL-28 = experiment: NCI-60 SRB screen: melanoma SK-MEL-28; type: cell-based, human; settings: SK-MEL-28
NCI-H322M = experiment: NCI-60 SRB screen: non-small cell lung cancer NCI-H322M; type: cell-based, human
UACC-257 = experiment: NCI-60 SRB screen: melanoma UACC-257; type: cell-based, human; settings: UACC-257
MCF7 = experiment: NCI-60 SRB screen: breast cancer MCF7; type: cell-based; settings: Homo sapiens, 48 h, MCF7
A549/ATCC = experiment: NCI-60 SRB screen: non-small cell lung cancer A549/ATCC; type: cell-based, human; settings: A549/ATCC
EKVX = experiment: NCI-60 SRB screen: non-small cell lung cancer EKVX; type: cell-based, human
NCI-H460 = experiment: NCI-60 SRB screen: non-small cell lung cancer NCI-H460; type: cell-based; settings: Homo sapiens, 48 h, NCI-H460
MOLT-4 = experiment: NCI-60 SRB screen: leukemia MOLT-4; type: cell-based; settings: Homo sapiens, 48 h, MOLT-4
MDA-MB-468 = experiment: NCI-60 SRB screen: breast cancer MDA-MB-468; type: cell-based, human
U251 = experiment: NCI-60 SRB screen: CNS cancer U251; type: cell-based; settings: Homo sapiens, U251
OVCAR-4 = experiment: NCI-60 SRB screen: ovarian cancer OVCAR-4; type: cell-based; settings: Homo sapiens; OVCAR-4; five concentrations, 48 h, SRB; read-out: GI50
SK-MEL-5 = experiment: NCI-60 SRB screen: melanoma SK-MEL-5; type: cell-based, human; settings: SK-MEL-5
[2] = Homo sapiens, five concentrations, 48 h, SRB, read-out: GI50
[3] = single dose 10 µM, read-out: Percentage Cell Growth
[4] = five concentrations, SRB, read-out: GI50

C=C(C)[C@@H]1CC[C@]2(C(=O)NCCNCCNCCN)CC[C@]3(C)[C@H](CC[C@@H]4[C@@]5(C)CC[C@H](O)C(C)(C)[C@@H]5CC[C@]43C)[C@@H]12 [Compound 6]
MID b, average sensitivity of all cell line of particular subpanel (Melanoma subpanel): 13.58 µM
Selectivity, ratio MID a: MID b (Melanoma subpanel): 0.89
GI50 (SNB-19; [2]): 12.9 µM
Percentage Cell Growth (SNB-19; single dose 10 µM): −74.52%
GI50 (SNB-75; [2]): 11.1 µM
Percentage Cell Growth (SNB-75; single dose 10 µM): −79.32%
GI50 ([1]; read-out: GI50 ranges against all panels of NCI60): 2.95 to 20.1 µM
GI50 ([1]; read-out: MID a, average sensitivity of all cell line (GI50-MID)): 12.2 µM
GI50 (NCI/ADR-RES; [2]): 18.9 µM
Percentage Cell Growth (NCI/ADR-RES; single dose 10 µM): −13.05%
activity at 10 µM (CCRF-CEM; [3]): 5.18%
GI50 (CCRF-CEM; [4]): 4.55 µM
GI50 (UACC-62; [2]): 9.29 µM
Percentage Cell Growth (UACC-62; single dose 10 µM): −100.00%
MID b, average sensitivity of all cell line of particular subpanel (Colon Cancer subpanel): 11.72 µM
Selectivity, ratio MID a: MID b (Colon Cancer subpanel): 1.04
GI50 (OVCAR-5; [2]): 18.6 µM
Percentage Cell Growth (OVCAR-5; single dose 10 µM): −83.37%
MID b, average sensitivity of all cell line of particular subpanel (Ovarian Cancer subpanel): 14.10 µM
Selectivity, ratio MID a: MID b (Ovarian Cancer subpanel): 0.86
GI50 (OVCAR-3; [2]): 12.2 µM
Percentage Cell Growth (OVCAR-3; single dose 10 µM): −66.02%
Percentage Cell Growth (HOP-92; single dose 10 µM): −65.35%
GI50 (HOP-92; [2]): 4.61 µM
activity at 10 µM (SR; [3]): -4.72%
GI50 (SR; [4]): 6.76 µM
Percentage Cell Growth (HS 578T; single dose 10 µM): −23.26%
GI50 (HS 578T; [2]): 20.1 µM
MID b, average sensitivity of all cell line of particular subpanel (NSCL cancer subpanel): 11.88 µM
Selectivity, ratio MID a: MID b (NSCL cancer subpanel): 1.02
GI50 (M14; [2]): 11 µM
Percentage Cell Growth (M14; single dose 10 µM): −30.98%
GI50 (IGROV1; Homo sapiens, IGROV-1, five concentrations, 48 h, SRB, read-out: GI50): 16.1 µM
Percentage Cell Growth (IGROV1; single dose 10 µM): −81.43%
activity at 10 µM (HL-60(TB); [3]): -24%
GI50 (HL-60(TB); [4]): 7.33 µM
MID b, average sensitivity of all cell line of particular subpanel (CNS cancer subpanel): 12.52 µM
Selectivity, ratio MID a: MID b (CNS cancer subpanel): 0.97
GI50 (NCI-H23; [2]): 14.7 µM
Percentage Cell Growth (NCI-H23; single dose 10 µM): −51.70%
MID b, average sensitivity of all cell line of particular subpanel (Leukemia subpanel): 6.64 µM
Selectivity, ratio MID a: MID b (Leukemia subpanel): 1.83
GI50 (SF-295; [2]): 13.8 µM
Percentage Cell Growth (SF-295; single dose 10 µM): −84.72%
MID b, average sensitivity of all cell line of particular subpanel (Renal Cancer subpanel): 13.02 µM
Selectivity, ratio MID a: MID b (Renal Cancer subpanel): 0.93
GI50 (SK-MEL-28; [2]): 16 µM
Percentage Cell Growth (SK-MEL-28; single dose 10 µM): −98.68%
GI50 (NCI-H322M; [2]): 15.1 µM
Percentage Cell Growth (NCI-H322M; single dose 10 µM): −83.84%
GI50 (UACC-257; [2]): 15.1 µM
Percentage Cell Growth (UACC-257; single dose 10 µM): −39.58%
activity at 10 µM (MCF7; [3]): -60.5%
GI50 (MCF7; [4]): 13.2 µM
Percentage Cell Growth (A549/ATCC; single dose 10 µM): −64.63%
GI50 (A549/ATCC; [2]): 4.97 µM
GI50 (EKVX; [2]): 10.5 µM
Percentage Cell Growth (EKVX; single dose 10 µM): −11.36%
activity at 10 µM (NCI-H460; [3]): -100%
GI50 (NCI-H460; [4]): 14.7 µM
activity at 10 µM (MOLT-4; [3]): 1.18%
GI50 (MOLT-4; [4]): 11.5 µM
GI50 (MDA-MB-468; [2]): 8.88 µM
Percentage Cell Growth (MDA-MB-468; single dose 10 µM): −48.60%
activity at 10 µM (U251; U-251, 48 h, single dose 10 µM, read-out: Percentage Cell Growth): -71.7%
GI50 (U251; U-251, five concentrations, 48 h, SRB, read-out: GI50): 12.7 µM
GI50 (OVCAR-4): 14.1 µM
GI50 (SK-MEL-5; [2]): 11.1 µM
Percentage Cell Growth (SK-MEL-5; single dose 10 µM): −90.10%
